41 compounds from ChEMBL document CHEMBL2434836, “Studies on substituted benzo[h]quinazolines, benzo[g]indazoles, pyrazoles, 2,6-diarylpyridines as anti-tubercular agents” (Bioorg Med Chem Lett, 2013) can be followed below.

Data set [1] in a line: Cytotoxicity against human THP1 cells after 24 hrs by MTT assay. It is filed as cell-based, THP-1.
Data set [2] concerns Mycobacterium tuberculosis. In words: Antitubercular activity against Mycobacterium tuberculosis H37Rv assessed as growth inhibition by micro plate alamar blue assay. It is filed as functional.
Data set [3] can be described thus: Safety index, ratio of CC50 for human THP1 cells to MIC for Mycobacterium tuberculosis H37Rv. It is filed as toxicity, cell-based, THP-1.

`COc1ccc(-c2cc(/C(C#N)=C/N(C)C)n[nH]2)cc1` registered a CC50 at 24 h in data set [1] of more than 200 µM. Besides, the minimum inhibitory concentration (MIC) in data set [2] came out at 100 µM.

For the compound `COc1ccc2c(c1)CCC1C2=NN(C(C)=O)C1c1ccc(OCCN2CCCC2)cc1` (configuration not stated), the minimum inhibitory concentration (MIC) in data set [2] was 200 µM. On the same count and under the same terms, then `COc1ccc2c(c1)CCC1C2=NN(C(C)=O)C1c1ccc(OCCN2CCCCC2)cc1` (configuration not stated), with more than 200 µM. Same read-out and setting: then `N#Cc1c(N2CCCCC2)cc(-c2ccc(Cl)cc2)nc1-c1ccccc1`, with more than 200 µM; and `CCOC(=O)/C(C#N)=C(\CC(=O)c1ccccc1)N1CCCCC1`, with more than 200 µM; and `CCN(CC)CCOc1ccc(C2C3CCc4cc(OC)ccc4C3=NN2C(C)=O)cc1` (configuration not stated), with 200 µM. Turning to `Cc1ccc(-c2cc(N3CCOCC3)c(C#N)c(-c3ccccc3)n2)cc1`, in data set [2], the minimal inhibitory concentration (MIC) is more than 200 µM.

In turn, `CCOC(=O)CCCOc1ccc(-c2nc(N)nc3c2CCc2cc(OC)ccc2-3)cc1` showed a CC50 at 24 h in data set [1] of 200 µM. Besides, the minimum inhibitory concentration (MIC) in data set [2] was determined as 50 µM. As for `CC1=NN(C(=O)c2cc(-c3ccc(Cl)cc3)n[nH]2)C(=O)/C1=N/Nc1cccc(F)c1`, the MIC in data set [2] was 0.35 mg/L. On to `COc1ccc2c(c1)CCc1c(-c3ccc(OCCN4CCCCC4)cc3)nc(N)nc1-2`, for which, in data set [1], the CC50 at 24 h is 200 µM. For the same compound, the MIC in data set [2] amounted to 50 µM. `O=c1nc2ccccn2cc1-c1cc(-c2ccccc2)[nH]n1`: the MIC in data set [2] was more than 200 µM. Still for that read-out and setting: then `COc1ccc2c(c1)CCC1C2=NN(C(C)=O)C1c1ccc(OC(C)CN(C)C)cc1` (configuration not stated), with 200 µM; and `COc1ccc2c(c1)CCC1C2=NN(C(C)=O)C1c1ccc(OCCN(C)C)cc1` (configuration not stated), with 200 µM.

With `COc1ccc2c(c1)CCc1c(-c3ccc(OC(C)CN(C)C)cc3)nc(N)nc1-2` (configuration not stated), the minimum inhibitory concentration (MIC) in data set [2] was found to be 200 µM. On the same count and under the same terms, then `N#Cc1c(N2CCCCC2)cc(-c2ccc(Br)cc2)nc1-c1ccccc1`, with more than 200 µM. On the same count and under the same terms, next, `CN(C)/C=C(\C#N)c1cc(-c2ccc(Br)cc2)[nH]n1`: more than 200 µM. As to `CCOC(=O)CCCCOc1ccc(-c2nc(N)nc3c2CCc2cc(OC)ccc2-3)cc1`, in data set [2], the MIC came out at 200 µM. Still for that read-out and setting: next, `Cc1ccc(-c2cc(CC#N)n[nH]2)cc1`: more than 200 µM. With `COc1ccc2c(c1)CCc1c(-c3ccc(OCCN(C)C)cc3)nc(N)nc1-2`, in data set [1], the CC50 at 24 h was 200 µM. Besides, the minimum inhibitory concentration (MIC) in data set [2] came out at 100 µM.

Take `COc1ccc(-c2cc3ccnc(-c4ccccc4)n3n2)cc1`: in data set [2], the MIC is more than 200 µM. Same read-out and setting: next, `COc1ccc2c(c1)CCc1c(-c3ccc(OCCN4CCCC4)cc3)nc(N)nc1-2`: 200 µM; `CN(C)/C=C(\C#N)c1cc(-c2ccccc2)[nH]n1`: 200 µM. The same measure, in the same setting: then `CN(C)/C=C(\C#N)c1cc(-c2ccc(Cl)cc2)[nH]n1`, with more than 200 µM; and `Cc1ccc(-c2cc(/C(C#N)=C/N(C)C)n[nH]2)cc1`, with more than 200 µM.

Consider `COc1ccc2c(c1)CCc1c(-c3ccc(OCCCCC(=O)NN)cc3)nc(N)nc1-2`, for which the MIC in data set [2] turned out to be 200 µM. On the same count and under the same terms, then `N#Cc1c(N2CCCCC2)cc(-c2ccccc2)nc1-c1ccccc1`, with more than 200 µM; and `NNC(=O)c1ccncc1` [ISONIAZID], with 0.2 µM. Still for that read-out and setting: next, `COc1ccc2c(c1)CCc1c(-c3ccc(O)cc3)nc(N)nc1-2`: more than 200 µM. For the compound `COc1ccc2c(c1)CCc1c(-c3ccc(OCCCCCC(=O)NN)cc3)nc(N)nc1-2`, the MIC in data set [2] was 200 µM. Same read-out and setting: next, `CN[C@@H]1[C@H](O[C@H]2[C@H](O[C@H]3[C@H](O)[C@@H](O)[C@H](N=C(N)N)[C@@H](O)[C@@H]3N=C(N)N)O[C@@H](C)[C@]2(O)C=O)O[C@@H](CO)[C@H](O)[C@H]1O` [STREPTOMYCIN]: 6 µM; `COc1ccc2c(c1)CCc1c(-c3ccc(OCCCC(=O)NN)cc3)nc(N)nc1-2`: 200 µM. In the case of `NC(=O)c1c(N2CCCCC2)cc(-c2ccc(Br)cc2)nc1-c1ccccc1`, the minimal inhibitory concentration (MIC) in data set [2] was more than 200 µM.

For the compound `N#CCc1cc(-c2ccc(Br)cc2)[nH]n1`, the cytotoxic concentration (CC50) at 24 h in data set [1] was more than 200 µM. Further, the minimum inhibitory concentration (MIC) in data set [2] is 25 µM. In addition, in data set [3], the selectivity ratio worked out at 8. As for `COc1ccc(-c2cc(CC#N)n[nH]2)cc1`, in data set [2], the MIC came to 200 µM. `N#CCc1cc(-c2ccc(Cl)cc2)[nH]n1`: the minimal inhibitory concentration (MIC) in data set [2] is more than 200 µM. Same read-out and setting: next, `Cc1ccc(-c2cc(N3CCCCC3)c(C#N)c(-c3ccccc3)n2)cc1`: more than 200 µM. For the compound `CO[C@H]1/C=C/O[C@@]2(C)Oc3c(C)c(O)c4c(O)c(c(/C=N/N5CCN(C)CC5)c(O)c4c3C2=O)NC(=O)/C(C)=C\C=C\[C@H](C)[C@H](O)[C@@H](C)[C@@H](O)[C@@H](C)[C@H](OC(C)=O)[C@@H]1C` [RIFAMPIN], the MIC in data set [2] amounted to 2 µM. Still for that read-out and setting: next, `CCSc1nc(Cl)c(C#N)c(-c2ccc(F)cc2F)n1`: 0.78 mg/L; `COc1ccc(-c2cc(N3CCCCC3)c(C#N)c(-c3ccccc3)n2)cc1`: more than 200 µM.

Take `COc1ccc2c(c1)CCC1C2=NN(C(C)=O)C1c1ccc(O)cc1` (configuration not stated): the minimum inhibitory concentration (MIC) in data set [2] is more than 200 µM. As to `CCOC(=O)CCCCCOc1ccc(-c2nc(N)nc3c2CCc2cc(OC)ccc2-3)cc1`, the minimum inhibitory concentration (MIC) in data set [2] was 200 µM.
